A value given as a limit tells only on which side of the number the result lay.

A short description of data set [1]: Relative bioavailability study (clinical study A), plasma pharmacokinetics of ticagrelor and AR-C124910XX. It counts as in vivo, healthy male and female subjects. How it is done:
A relative bioavailability study (hereafter referred to as clinical study A) compared the orodispersible tablet of Example 7, administered with water (after oral dispersion) and without water, to a film-coated tablet containing 90 mg of ticagrelor. In clinical study A the orodispersible tablet was also suspended in water and administered through a nasogastric tube and compared to the film-coated tablet.
This study was an open-label, randomised, four-period, four-treatment, crossover study in healthy male and female of non-childbearing potential subjects, performed at a single study centre. The study was comprised of: • A screening period of maximum 21 days; • Four treatment periods during which subjects were resident prior to the evening meal the night before dosing with ticagrelor (Day −1) until at least 48 hours after dosing; discharged on the morning of Day 3; and • A final visit within 5 to 10 days after the last administration of ticagrelor.
Subjects received single doses of ticagrelor in 4 different ways under fasted conditions. Following an overnight fast of at least 10 hours, each subject received a single dose of each treatment on 4 occasions, respectively.
The PK parameters were assessed for ticagrelor (parent) and its active metabolite AR-C124910XX based on plasma concentrations.
Pharmacokinetic parameters were summarised for each treatment using descriptive statistics. Where possible, the following descriptive statistics were presented: n, geometric mean, geometric CV, arithmetic mean, arithmetic standard deviation, median, minimum and maximum. For tmax, only n, median, minimum and maximum were presented.
Bioavailability comparison of treatments A, B and C (test product) and D (reference product) were assessed on the ratio of log-transformed Cmax, AUC0-t, and AUC of both ticagrelor and AR-C124910XX using a 2-sided 90% confidence interval (CI) approach based on an analysis of variance (ANOVA) model including fixed effects for treatment, sequence, period and subject within sequence.
All PK parameters were log-transformed prior to analysis. The estimated treatment differences and the 90% CIs on the log scale were back transformed to obtain the geometric mean ratios for each pair of treatments.

The nature of data set [2]: Focused Beam Reflectance Measurement (FBRM) of granules in dissolution bath. The class given is physicochemical. Particulars: granules stored at 40° C. and 75% RH for one month. The method, then:
Focused Beam Reflectance Measurement (FBRM) analyses were conducted in dissolution studies. The FBRM technique involves the insertion of a probe directly into a process stream, at an angle, to ensure particles can flow easily across the probe window where the measurement takes place. A laser beam is launched down the probe tube through a set of optics and focused to a tight beam spot at the sapphire window. The optics rotate at a fixed speed (typically 2 m/s) resulting in the beam spot rapidly scanning across particles as they flow past the window. As the focused beam scans across the particle system, individual particles or particle structures will backscatter the laser light to the detector. These distinct pulses of backscattered light are detected, counted, and the duration of each pulse is multiplied by the scan speed to calculate the distance across each particle. This distance is defined as the chord length, a fundamental measurement of the particle related to the particle size, and a precise and highly sensitive chord length distribution can be reported in real time, thus tracking how particle size and count change over time. […]
The integration time was set to 5 seconds. […] From that dataset kinetic curves were calculated showing different size fractions and the fraction 40-100 μm was the fraction selected for comparison. […]

Data set [3] can be described thus: Mercury intrusion porosimetry (pore volume, pore size distribution). The class given is physicochemical. How it is done: The pore volume and the pore size distribution were determined using mercury intrusion porosimetry (Micromeritics AutoPore III 9410). The determination was performed within the pore diameter interval 115 μm≥ϕ≥0.0030 μm (30 Å). The surface tension and the contact angle of mercury are set to 485 mN/m and 130°, respectively. Blank correction has been used to compensate for compaction of parts of the penetrometer system at high pressures. The test materials used were: ticagrelor granules (“3606”), final tablet blend (“3606 FB”); F-melt type C granules (“F-melt”); Ticagrelor particles from supplier 1 (“AZ”); Ticagrelor particles from supplier 2 (“DSM”); Ticagrelor particles from supplier 3 (“Omnichem”).
One of the penetrometers used for analysis of the granules was used for the reference test. The result gave a cumulative pore volume of 0.55 cm^3/g and a median pore diameter (based on volume) of 73 Å. The reference values are 0.56±0.02 cm^3/g and 75±5 Å, respectively.

A short description of data set [4]: Powder flow indices (Carr's index, Hausner ratio). The class given is physicochemical. Particulars: ticagrelor powders. An excerpt:
Ticagrelor powders are characterised by poor flowability, for example as indicated by a large Hausner ratio (tap density/bulk density ˜1.8-2.0).

The mark [5] stands for this setting: plasma, single 90 mg ticagrelor dose, fasted, range across treatments.
Setting [6] is: pores <8, post-storage 1 month at 40° C./75% RH.
Where [7] appears, read: pores >8, post-storage 1 month at 40° C./75% RH.

With `CCCSc1nc(N[C@@H]2C[C@H]2c2ccc(F)c(F)c2)c2nnn([C@@H]3C[C@H](O)[C@@H](O)[C@H]3O)c2n1` [AR-C124910XX], the median tmax in data set [1] (plasma, single 90 mg ticagrelor dose, fasted, across OD (with water, without water, NG tube) and IR tablets) was in the range of 2 to 3 h. Further, in data set [1] (setting [5]), the “terminal mean t1/2λz” value was in the range of 9.35 to 9.48 h. Besides, in data set [1] (range across treatments), the “Plasma metabolite AUC as % of plasma ticagrelor AUC” value was 38.2-40.5% and the “Plasma metabolite Cmax as % of plasma ticagrelor Cmax” value is recorded as 27.1-30.0%.

As for `CCCSc1nc(N[C@@H]2C[C@H]2c2ccc(F)c(F)c2)c2nnn([C@@H]3C[C@H](OCCO)[C@@H](O)[C@H]3O)c2n1` [AZ], the “Particle dissolution by FBRM after storage compared with non-stored granules” value in data set [2] is reported as “slower particle dissolution”. Also, the “Median pore diameter (vol)” value in data set [3] (setting [6]) was determined as 1.1 μm; in data set [3] (pores <8, pre-storage), 0.9 μm; in data set [3] (setting [7]), 27 μm; in data set [3] (pores >8, pre-storage) it was 24 μm. For the same compound, the Pore area in data set [3] (setting [6]) is reported as 14 m^2/g; in data set [3] (pores <8, pre-storage), 14 m^2/g; in data set [3] (setting [7]), 0.1 m^2/g; in data set [3] (pores >8, pre-storage), 0.1 m^2/g. Moreover, the Pore volume is recorded as 0.23 cm^3/g in data set [3] (setting [6]); 0.23 cm^3/g in data set [3] (pores <8, pre-storage); 0.69 cm^3/g in data set [3] (setting [7]); 0.62 cm^3/g in data set [3] (pores >8, pre-storage).

For `CCCSc1nc(N[C@@H]2C[C@H]2c2ccc(F)c(F)c2)c2nnn([C@@H]3C[C@H](OCCO)[C@@H](O)[C@H]3O)c2n1` [DSM], the “Median pore diameter (vol)” value was 1.5 μm in data set [3] (setting [6]); 1.2 μm in data set [3] (pores <8, pre-storage); 20 μm in data set [3] (setting [7]); 19 μm in data set [3] (pores >8, pre-storage). In addition, the Pore area in data set [3] (setting [6]) came to 12 m^2/g; in data set [3] (pores <8, pre-storage), 13 m^2/g; in data set [3] (setting [7]) it was 0.1 m^2/g; in data set [3] (pores >8, pre-storage), 0.1 m^2/g. For the same compound, the Pore volume was found to be 0.29 cm^3/g in data set [3] (setting [6]); 0.28 cm^3/g in data set [3] (pores <8, pre-storage); 0.64 cm^3/g in data set [3] (setting [7]); 0.59 cm^3/g in data set [3] (pores >8, pre-storage).

On to `CCCSc1nc(N[C@@H]2C[C@H]2c2ccc(F)c(F)c2)c2nnn([C@@H]3C[C@H](OCCO)[C@@H](O)[C@H]3O)c2n1` [Omnichem], for which the “Median pore diameter (vol)” value in data set [3] (setting [6]) was 0.5 μm; in data set [3] (pores <8, pre-storage), 0.5 μm; in data set [3] (setting [7]) it was 36 μm; in data set [3] (pores >8, pre-storage), 35 μm. The Pore area in data set [3] (setting [6]) is given as 9 m^2/g; in data set [3] (pores <8, pre-storage), 12 m^2/g; in data set [3] (setting [7]), below 0.1 m^2/g; in data set [3] (pores >8, pre-storage) it was below 0.1 m^2/g. The Pore volume in data set [3] (setting [6]) was 0.18 cm^3/g; in data set [3] (pores <8, pre-storage) it was 0.28 cm^3/g; in data set [3] (setting [7]), 0.61 cm^3/g; in data set [3] (pores >8, pre-storage) it was 0.53 cm^3/g.

Turning to `CCCSc1nc(N[C@@H]2C[C@H]2c2ccc(F)c(F)c2)c2nnn([C@@H]3C[C@H](OCCO)[C@@H](O)[C@H]3O)c2n1` [ticagrelor, (1S,2S,3R,5S)-3-[7-{[(1R,2S)-2-(3,4-difluorophenyl)cyclopropyl]amino}-5-(propylthio)-3H[1,2,3]-triazolo[4,5-d]pyrimidin-3-yl]-5-(2-hydroxyethoxy)cyclopentane-1,2-diol], in data set [4], the “Hausner ratio (tap density/bulk density)” value is on record as 1.8-2.0. Besides, the Tmax in data set [1] (both sexes, human, oral, plasma, single 90 mg ticagrelor dose, fasted, across OD (with water, without water, NG tube) and IR tablets, read-out: median tmax) is around 2 h. In addition, the “terminal mean t1/2λz” value in data set [1] (setting [5]) fell in the range of 7.99 to 8.21 h.

The term Tmax denotes the time from dosing to the highest level.

Source of the values: US10729655B2, “Orally disintegrating tablets” (AstraZeneca AB, priority 2016, dated 2020).
